One block for each compound: values may come before it.
Assays:
[1] = Form A stability tests under simulated drug substance storage conditions; assay type: physicochemical
Protocol: Tables 3 and 4: Form A stability data: Compound (I) in the form of Form A was packed in double bagged polythene bags (fastened with cable/security ties) and placed inside 3.6 L Curtec kegs (HDPE) to simulate typical drug substance storage conditions. Stability tests were performed at 40° C./75% RH (table 3) and 25° C./60% RH (table 4).

[2] = Hygroscopicity (absorption-desorption spectrum); assay type: physicochemical; conditions: FIG. 2 / FIG. 7
Excerpt: FIG. 2: Absorption-Desorption spectrum of form A FIG. 7: Absorption-desorption spectrum of form B

Sirt1 = target: T1, Sirt1 (Homo sapiens, UniProt Q96EB6); conditions: known from WO2005026112; cited from earlier work
T1 sequence (Q96EB6 1-747): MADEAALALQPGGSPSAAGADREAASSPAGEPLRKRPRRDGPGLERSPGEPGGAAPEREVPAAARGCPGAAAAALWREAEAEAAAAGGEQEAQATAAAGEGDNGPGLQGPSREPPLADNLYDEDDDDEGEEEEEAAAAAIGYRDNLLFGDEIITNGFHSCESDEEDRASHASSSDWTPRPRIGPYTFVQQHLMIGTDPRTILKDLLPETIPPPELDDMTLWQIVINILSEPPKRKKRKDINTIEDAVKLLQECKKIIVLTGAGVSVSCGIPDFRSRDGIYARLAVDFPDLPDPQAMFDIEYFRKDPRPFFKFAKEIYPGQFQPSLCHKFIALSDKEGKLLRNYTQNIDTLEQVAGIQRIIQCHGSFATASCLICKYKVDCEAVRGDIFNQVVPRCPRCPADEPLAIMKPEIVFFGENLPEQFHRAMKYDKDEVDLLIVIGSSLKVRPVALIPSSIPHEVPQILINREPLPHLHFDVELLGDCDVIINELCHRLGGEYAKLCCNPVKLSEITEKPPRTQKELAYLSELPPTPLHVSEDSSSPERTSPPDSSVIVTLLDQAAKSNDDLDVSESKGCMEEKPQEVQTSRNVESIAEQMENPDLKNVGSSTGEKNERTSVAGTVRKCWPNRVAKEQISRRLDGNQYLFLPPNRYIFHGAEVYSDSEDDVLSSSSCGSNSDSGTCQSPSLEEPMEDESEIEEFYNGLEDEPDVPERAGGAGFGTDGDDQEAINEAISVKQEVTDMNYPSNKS

DSC (conforms to polymorph A) ([1]; 25° C./60% RH, t = 0): Conforms | Impurity content (by HPLC), no single impurity greater than 0.50% area ([1]; 25° C./60% RH, t = 0): Conforms | XRPD (conforms to polymorph) ([1]; 25° C./60% RH, t = 0): Conforms | Assay (by HPLC) ([1]; 25° C./60% RH, t = 0, on an anhydrous and solvent free basis, spec 98.0-102.0% w/w): 99.7% w/w | Water content (by KF titration) ([1]; 25° C./60% RH, t = 0, spec: not more than 0.5% w/w): <0.1% w/w | Impurity content (by HPLC), total impurities ([1]; 25° C./60% RH, t = 0, spec: not more than 2.0% area): 0.31% area | Description ([1]; 25° C./60% RH, t = 0, spec: white to off-white solid): Off-white | Assay (by HPLC) ([1]; 25° C./60% RH, t = 1 month): 99.0% w/w | Description ([1]; 25° C./60% RH, t = 1 month): Off-white | Impurity content (by HPLC), no single impurity greater than 0.50% area ([1]; 25° C./60% RH, t = 1 month): Conforms | Impurity content (by HPLC), total impurities ([1]; 25° C./60% RH, t = 1 month): 0.54% area | Water content (by KF titration) ([1]; 25° C./60% RH, t = 1 month): <0.1% w/w | Assay (by HPLC) ([1]; 25° C./60% RH, t = 3 months): 99.1% w/w | Description ([1]; 25° C./60% RH, t = 3 months): Off-white | Impurity content (by HPLC), no single impurity greater than 0.50% area ([1]; 25° C./60% RH, t = 3 months): Conforms | Impurity content (by HPLC), total impurities ([1]; 25° C./60% RH, t = 3 months): 0.22% area | Water content (by KF titration) ([1]; 25° C./60% RH, t = 3 months): 0.2% w/w | Assay (by HPLC) ([1]; 25° C./60% RH, t = 6 months): 98.7% w/w | DSC (conforms to polymorph A) ([1]; 25° C./60% RH, t = 6 months): Conforms | Description ([1]; 25° C./60% RH, t = 6 months): Off-white | Impurity content (by HPLC), no single impurity greater than 0.50% area ([1]; 25° C./60% RH, t = 6 months): Conforms | Impurity content (by HPLC), total impurities ([1]; 25° C./60% RH, t = 6 months): 0.32% area | Water content (by KF titration) ([1]; 25° C./60% RH, t = 6 months): 0.1% w/w | XRPD (conforms to polymorph) ([1]; 25° C./60% RH, t = 6 months): Conforms | Assay (by HPLC) ([1]; 25° C./60% RH, t = 9 months): 99.4% w/w | Description ([1]; 25° C./60% RH, t = 9 months): Off-white | Impurity content (by HPLC), no single impurity greater than 0.50% area ([1]; 25° C./60% RH, t = 9 months): Conforms | Impurity content (by HPLC), total impurities ([1]; 25° C./60% RH, t = 9 months): 0.29% area | Water content (by KF titration) ([1]; 25° C./60% RH, t = 9 months): <0.1% w/w | Assay (by HPLC) ([1]; 25° C./60% RH, t = 12 months): 99.0% w/w | DSC (conforms to polymorph A) ([1]; 25° C./60% RH, t = 12 months): Conforms | Description ([1]; 25° C./60% RH, t = 12 months): Off-white | Impurity content (by HPLC), no single impurity greater than 0.50% area ([1]; 25° C./60% RH, t = 12 months): Conforms | Impurity content (by HPLC), total impurities ([1]; 25° C./60% RH, t = 12 months): 0.27% area | Water content (by KF titration) ([1]; 25° C./60% RH, t = 12 months): 0.1% w/w | XRPD (conforms to polymorph) ([1]; 25° C./60% RH, t = 12 months): Conforms | Assay (by HPLC) ([1]; 25° C./60% RH, t = 18 months): 98.6% w/w | Description ([1]; 25° C./60% RH, t = 18 months): Off-white | Impurity content (by HPLC), no single impurity greater than 0.50% area ([1]; 25° C./60% RH, t = 18 months): Conforms | Impurity content (by HPLC), total impurities ([1]; 25° C./60% RH, t = 18 months): 0.26 % area | Water content (by KF titration) ([1]; 25° C./60% RH, t = 18 months): 0.1% w/w | Assay (by HPLC) ([1]; 25° C./60% RH, t = 24 months): 98.2% w/w | DSC (conforms to polymorph A) ([1]; 25° C./60% RH, t = 24 months): Conforms | Description ([1]; 25° C./60% RH, t = 24 months): Off-white | Impurity content (by HPLC), no single impurity greater than 0.50% area ([1]; 25° C./60% RH, t = 24 months): Conforms | Impurity content (by HPLC), total impurities ([1]; 25° C./60% RH, t = 24 months): 0.39% area | Water content (by KF titration) ([1]; 25° C./60% RH, t = 24 months): <0.1% w/w | XRPD (conforms to polymorph) ([1]; 25° C./60% RH, t = 24 months): Conforms | DSC (conforms to polymorph A) ([1]; 40° C./75% RH, t = 0): Conforms | Impurity content (by HPLC), no single impurity greater than 0.50% area ([1]; 40° C./75% RH, t = 0): Conforms | XRPD (conforms to polymorph A) ([1]; 40° C./75% RH, t = 0): Conforms | Assay (by HPLC) ([1]; 40° C./75% RH, t = 0, anhydrous and solvent free-basis, spec 98.0-102.0% w/w): 99.7% w/w | Water content (by KF titration) ([1]; 40° C./75% RH, t = 0, spec: not more than 0.5% w/w): <0.1% w/w | Impurity content (by HPLC), total impurities ([1]; 40° C./75% RH, t = 0, spec: not more than 2.0% area): 0.31% area | Description ([1]; 40° C./75% RH, t = 0, spec: white to off-white solid): Off-white | Description ([1]; 40° C./75% RH, t = 1 month): Off-white | Impurity content (by HPLC), no single impurity greater than 0.50% area ([1]; 40° C./75% RH, t = 1 month): Conforms | Impurity content (by HPLC), total impurities ([1]; 40° C./75% RH, t = 1 month): 0.25% area | Water content (by KF titration) ([1]; 40° C./75% RH, t = 1 month): <0.1% w/w | Assay (by HPLC) ([1]; 40° C./75% RH, t = 1 month, anhydrous and solvent free-basis): 98.9% w/w | Description ([1]; 40° C./75% RH, t = 3 months): Off-white | Impurity content (by HPLC), no single impurity greater than 0.50% area ([1]; 40° C./75% RH, t = 3 months): Conforms | Impurity content (by HPLC), total impurities ([1]; 40° C./75% RH, t = 3 months): 0.25% area | Water content (by KF titration) ([1]; 40° C./75% RH, t = 3 months): 0.4% w/w | Assay (by HPLC) ([1]; 40° C./75% RH, t = 3 months, anhydrous and solvent free-basis): 99.4% w/w | Description ([1]; 40° C./75% RH, t = 6 months): Off-white | Impurity content (by HPLC), no single impurity greater than 0.50% area ([1]; 40° C./75% RH, t = 6 months): Conforms | Impurity content (by HPLC), total impurities ([1]; 40° C./75% RH, t = 6 months): 0.33% area | Water content (by KF titration) ([1]; 40° C./75% RH, t = 6 months): 0.1% w/w | XRPD (conforms to polymorph A) ([1]; 40° C./75% RH, t = 6 months): Conforms | Assay (by HPLC) ([1]; 40° C./75% RH, t = 6 months, anhydrous and solvent free-basis): 99.0% w/w | Stability over time ([1]; Tables 3 and 4 (40° C./75% RH and 25° C./60% RH)): stable over time
SMILES: NC(=O)C1CCCc2c1[nH]c1ccc(Cl)cc21 (centres unmarked) [Form A, 6-Chloro-2,3,4,9-tetrahydro-1H-carbazole-1-carboxamide]

Hygroscopicity [2]: non hygroscopic
SMILES: NC(=O)C1CCCc2c1[nH]c1ccc(Cl)cc21 (centres unmarked) [Form B, 6-Chloro-2,3,4,9-tetrahydro-1H-carbazole-1-carboxamide]

SMILES: NC(=O)C1CCCc2c1[nH]c1ccc(Cl)cc21 (racemic) [Compound (I), rac-6-Chloro-2,3,4,9-tetrahydro-1H-carbazole-1-carboxamide]
anti Sirt1 activity (Sirt1): anti Sirt1 activity

Reference: patent US10329254B2, “Process for the preparation of 6-chloro-2,3,4,9-tetrahydro-1H-carbazole-1-carboxamide and intermediates thereof” (AOP ORPHAN PHARMACEUTICALS AG, priority 2011, dated 2019)
